# ChEMBL document CHEMBL1123035, “Synthesis and LSD-like discriminative stimulus properties in a series of N(6)-alkyl norlysergic acid N,N-diethylamide derivatives” (J Med Chem, 1985)
# How the values were obtained:
# Rattus norvegicus [1] = experiment: Number of rats scored LSD correct/number tested was reported at a dose of 3.710 uM/kg using 2-lever drug discrimination assay; complete generalisation did not occur at the highest dose used; assay type: ADME, organism-based; settings: in vivo
# Rattus norvegicus [2] = experiment: Number of rats scored LSD correct/number tested was reported at a dose of 185 nM/kg using 2-lever drug discrimination assay; 8/8; assay type: functional
# Rattus norvegicus [3] = species on record: Rattus norvegicus; experiment: Potency ratio was obtained using a 3 point x 3 point parallel-line bioassay for quantal data and reflects the potency relative to LSD; 1.62-0.62; assay type: functional
# Rattus norvegicus [4] = species on record: Rattus norvegicus; experiment: Effective dose at which 50% of the rats tested selected the LSD-appropriate lever was reported; 0.019-0.071; assay type: functional
# Rattus norvegicus [5] = experiment: Number of rats scored LSD correct/number tested was reported at a dose of 11.5 nM/Kg using 2-lever drug discrimination assay; 2/8; assay type: functional
# Rattus norvegicus [6] = experiment: Number of rats scored LSD correct/number tested was reported at a dose of 46.5 nM/Kg using 2-lever drug discrimination assay; 4/8; assay type: functional
# Rattus norvegicus [7] = experiment: Number of rats scored LSD correct/number tested was reported at a dose of 93 nM/Kg using 2-lever drug discrimination assay; 6/8; assay type: functional
# Rattus norvegicus [8] = experiment: Number of rats scored LSD correct/number tested was reported at a dose of 23 nM/Kg using 2-lever drug discrimination assay; 2/8; assay type: functional
# Rattus norvegicus [9] = experiment: Number of rats scored LSD correct/number tested was reported at a dose of 371 nM/kg using 2-lever drug discrimination assay; 3/8; assay type: functional
# Rattus norvegicus [10] = experiment: Number of rats scored LSD correct/number tested was reported at a dose of 93 nM/kg using 2-lever drug discrimination assay; 1/8; assay type: functional
# Rattus norvegicus [11] = experiment: Number of rats scored LSD correct/number tested was reported at a dose of 185.5 nM/kg using 2-lever drug discrimination assay; 1/8; assay type: functional
# Rattus norvegicus [12] = species on record: Rattus norvegicus; experiment: Effective dose at which 50% of the rats tested selected the LSD-appropriate lever was reported; 0.209-0.610; assay type: functional
# Rattus norvegicus [13] = experiment: Number of rats scored LSD correct/number tested was reported at a dose of 46.5 nM/kg using 2-lever drug discrimination assay; 0/8; assay type: functional
# Rattus norvegicus [14] = experiment: Number of rats scored LSD correct/number tested was reported at a dose of 742 nM/kg using 2-lever drug discrimination assay; 7/8; assay type: functional
# Rattus norvegicus [15] = species on record: Rattus norvegicus; experiment: Potency ratio was obtained using a 3 point x 3 point parallel-line bioassay for quantal data and reflects the potency relative to LSD; 0.21-0.08; assay type: functional
# Rattus norvegicus [16] = experiment: Number of rats scored LSD correct/number tested was reported at a dose of 5.75 nM/Kg using 2-lever drug discrimination assay; 2/8; assay type: functional
# Rattus norvegicus [17] = species on record: Rattus norvegicus; experiment: Effective dose at which 50% of the rats tested selected the LSD-appropriate lever was reported; 0.010-0.041; assay type: functional
# Rattus norvegicus [18] = experiment: Number of rats scored LSD correct/number tested was reported at a dose of 11.5 nM/Kg using 2-lever drug discrimination assay; 3/8; assay type: functional
# Rattus norvegicus [19] = species on record: Rattus norvegicus; experiment: Potency ratio was obtained using a 3 point x 3 point parallel-line bioassay for quantal data and reflects the potency relative to LSD; 2.63-1.00; assay type: functional
# Rattus norvegicus [20] = experiment: Number of rats scored LSD correct/number tested was reported at a dose of 46.5 nM/Kg using 2-lever drug discrimination assay; 5/8; assay type: functional
# Rattus norvegicus [21] = experiment: Number of rats scored LSD correct/number tested was reported at a dose of 23.0 nM/Kg using 2-lever drug discrimination assay; 3/8; assay type: functional
# Rattus norvegicus [22] = experiment: Number of rats scored LSD correct/number tested was reported at a dose of 93 nM/Kg using 2-lever drug discrimination assay; 8/8; assay type: functional
# Rattus norvegicus [23] = species on record: Rattus norvegicus; experiment: Potency ratio was obtained using a 3 point x 3 point parallel-line bioassay for quantal data and reflects the potency relative to LSD; 0.66-0.25; assay type: functional
# Rattus norvegicus [24] = experiment: Number of rats scored LSD correct/number tested was reported at a dose of 93 nM/kg using 2-lever drug discrimination assay; 3/8; assay type: functional
# Rattus norvegicus [25] = experiment: Number of rats scored LSD correct/number tested was reported at a dose of 46.5 nM/Kg using 2-lever drug discrimination assay; 2/8; assay type: functional
# Rattus norvegicus [26] = experiment: Number of rats scored LSD correct/number tested was reported at a dose of 185.5 nM/Kg using 2-lever drug discrimination assay; 5/8; assay type: functional
# Rattus norvegicus [27] = experiment: Number of rats scored LSD correct/number tested was reported at a dose of 371 nM/kg using 2-lever drug discrimination assay; 8/8; assay type: functional
# Rattus norvegicus [28] = experiment: Number of rats scored LSD correct/number tested was reported at a dose of 23 nM/Kg using 2-lever drug discrimination assay; 1/8; assay type: functional
# Rattus norvegicus [29] = species on record: Rattus norvegicus; experiment: Effective dose at which 50% of the rats tested selected the LSD-appropriate lever was reported; 0.052-0.186; assay type: functional
# Rattus norvegicus [30] = experiment: Number of rats scored LSD correct/number tested was reported at a dose of 0.742 uM/kg using 2-lever drug discrimination assay; complete generalisation did not occur at the highest dose used; assay type: ADME, organism-based; settings: in vivo
# Rattus norvegicus [31] = species on record: Rattus norvegicus; experiment: Effective dose at which 50% of the rats tested selected the LSD-appropriate lever was reported; 0.006-0.027; assay type: functional
# Rattus norvegicus [32] = experiment: Number of rats scored LSD correct/number tested was reported at a dose of 46.5 nM/kg using 2-lever drug discrimination assay; 6/8; assay type: functional
# Rattus norvegicus [33] = species on record: Rattus norvegicus; experiment: Potency ratio was obtained using a 3 point x 3 point parallel-line bioassay for quantal data and reflects the potency relative to LSD; 3.27-1.24; assay type: functional
# Rattus norvegicus [34] = experiment: Number of rats scored LSD correct/number tested was reported at a dose of 5.75 nM/kg using 2-lever drug discrimination assay; 3/8; assay type: functional
# Rattus norvegicus [35] = experiment: Number of rats scored LSD correct/number tested was reported at a dose of 93 nM/kg using 2-lever drug discrimination assay; 8/8; assay type: functional
# Rattus norvegicus [36] = experiment: Number of rats scored LSD correct/number tested was reported at a dose of 23 nM/kg using 2-lever drug discrimination assay; 4/8; assay type: functional
# Rattus norvegicus [37] = experiment: Number of rats scored LSD correct/number tested was reported at a dose of 11.5 nM/kg using 2-lever drug discrimination assay; 4/8; assay type: functional
# Rattus norvegicus [38] = species on record: Rattus norvegicus; experiment: Effective dose at which 50% of the rats tested selected the LSD-appropriate lever was reported; 0.029-0.072; assay type: functional
# Rattus norvegicus [39] = species on record: Rattus norvegicus; experiment: Potency ratio was obtained using a 3 point x 3 point parallel-line bioassay for quantal data and reflects the potency relative to LSD; assay type: functional
# Rattus norvegicus [40] = experiment: Number of rats scored LSD correct/number tested was reported at a dose of 11.5 nM/Kg using 2-lever drug discrimination assay; 0/8; assay type: functional
# Rattus norvegicus [41] = experiment: Number of rats scored LSD correct/number tested was reported at a dose of 93.0 nM/Kg using 2-lever drug discrimination assay; 6/8; assay type: functional
# Rattus norvegicus [42] = experiment: Number of rats scored LSD correct/number tested was reported at a dose of 185.5 nM/Kg using 2-lever drug discrimination assay; 8/8; assay type: functional
smiles,measurement,setting,value
CCN(CC)C(=O)[C@@H]1C=C2c3cccc4[nH]cc(c34)C[C@H]2NC1,Activity,Rattus norvegicus [1],50%
CCCN1C[C@H](C(=O)N(CC)CC)C=C2c3cccc4[nH]cc(c34)C[C@H]21,Activity,Rattus norvegicus [2],8
same,Potency ratio,Rattus norvegicus [3],1
same,ED50,Rattus norvegicus [4],0.037 µg/kg
same,Activity,Rattus norvegicus [5],2
same,Activity,Rattus norvegicus [6],4
same,Activity,Rattus norvegicus [7],6
same,Activity,Rattus norvegicus [8],2
CCCCN1C[C@H](C(=O)N(CC)CC)C=C2c3cccc4[nH]cc(c34)C[C@H]21,Activity,Rattus norvegicus [9],3
same,Activity,Rattus norvegicus [10],1
same,Activity,Rattus norvegicus [11],1
same,ED50,Rattus norvegicus [12],0.357 µg/kg
same,Activity,Rattus norvegicus [13],0
same,Activity,Rattus norvegicus [14],7
same,Potency ratio,Rattus norvegicus [15],0.13
CCN(CC)C(=O)[C@@H]1C=C2c3cccc4[nH]cc(c34)C[C@H]2N(CC)C1,Activity,Rattus norvegicus [16],2
same,ED50,Rattus norvegicus [17],0.02 µg/kg
same,Activity,Rattus norvegicus [18],3
same,Potency ratio,Rattus norvegicus [19],1.63
same,Activity,Rattus norvegicus [20],5
same,Activity,Rattus norvegicus [21],3
same,Activity,Rattus norvegicus [22],8
CCN(CC)C(=O)[C@@H]1C=C2c3cccc4[nH]cc(c34)C[C@H]2N(C(C)C)C1,Potency ratio,Rattus norvegicus [23],0.41
same,Activity,Rattus norvegicus [24],3
same,Activity,Rattus norvegicus [25],2
same,Activity,Rattus norvegicus [26],5
same,Activity,Rattus norvegicus [27],8
same,Activity,Rattus norvegicus [28],1
same,ED50,Rattus norvegicus [29],0.1 µg/kg
CCN(CC)C(=O)[C@@H]1C=C2c3cccc4[nH]cc(c34)C[C@H]2N(CCc2ccccc2)C1,Activity,Rattus norvegicus [30],25%
C=CCN1C[C@H](C(=O)N(CC)CC)C=C2c3cccc4[nH]cc(c34)C[C@H]21,ED50,Rattus norvegicus [31],0.013 µmol/kg
same,Activity,Rattus norvegicus [32],6
same,Potency ratio,Rattus norvegicus [33],2.01
same,Activity,Rattus norvegicus [34],3
same,Activity,Rattus norvegicus [35],8
same,Activity,Rattus norvegicus [36],4
same,Activity,Rattus norvegicus [37],4
CCN(CC)C(=O)[C@@H]1C=C2c3cccc4[nH]cc(c34)C[C@H]2N(C)C1 [LYSERGIDE],ED50,Rattus norvegicus [38],0.046 µg/kg
same,Potency ratio,Rattus norvegicus [39],1
same,Activity,Rattus norvegicus [40],0
same,Activity,Rattus norvegicus [41],6
same,Activity,Rattus norvegicus [42],8
same,Activity,Rattus norvegicus [6],4
same,Activity,Rattus norvegicus [8],2
